Measured values published in patent US20240299299A1, “COMPOSITIONS AND METHODS FOR INCREASING THE EFFICACY OF IMMUNOTHERAPIES AND VACCINES” (The Regents of the University of Michigan, priority 2021, published 2024).

Key:
[1] = tested on: OT-I CD8+ T cells; test: CD8+ T cell survival upon IL-2 withdrawal (Annexin V/PI); type: cell-based, mice; conditions: dependent on the dose of metabolites
Method: FIG. 4: a) OT-I CD8+ T cells were cultured with different metabolites in vitro as indicated, b,c) shown are the level of survival CD8+ T cells (Annexin V^−PI^−) as well as the representative flow cytometry plots on day 5.5. Data represent the mean±s.e.m. (n=5).
Splenocytes from OT-I mice were obtained aseptically. The cells were cultured in 96-well plates (1×10^5 cells per well). For Tcm differentiation study, cells were activated with SIINFEKL peptide (4×10^−9M) in the presence of various metabolites (arginine: 3 mM; 3-methylhistidine: 3 mM; N-acetylneuraminate: 100 μM; disodium sebacate: 100 μM; DHB: 100 μM; pantothenate: 100 μM; γ-aminobutyric acid: 100 μM; glycerol: 100 μM; AICAR: 100 μM, sodium ferulate: 100 μM) for 3 days. Then cells were washed three times with T-cell medium and further cultured with IL-2 (10 ng ml^−1; PeproTech) in the presence of metabolites for 5 days. The cells were then washed twice and re-activated with SIINFEKL peptide (10 μM) for 2 h. The suspension cells were collected, blocked with CD16/32 antibody and stained with the fixable viability dye eFluor 450, FITC-CD44 rat anti-human/mouse and PE-CD62L monoclonal antibody. To test if the central memory CD8+ T cells differentiation is dependent on dendritic cells, CD8 T cells isolated from the spleen in OT-I mice were incubated in the 96-well plate, which was precoated with anti-hamster IgG antibody. […] (1 μg mL^−1) and IL-2 (100 U mL^−1) were added into each well in the presence of 3-methylhistidine (3 mM), DHB (100 μM), or sodium ferulate (100 μM) for 2 days. Then cells were washed for three times to remove α-CD3/α-CD28 antibodies and further incubated with metabolites and IL-2 (10 ng ml^−1) for 5 days. Thereafter, cells were collected for central memory CD8^+ T cells analysis. For CD8^+ T cells survival study, cells were activated with antigen peptide as above, following with thoroughly washing, and incubation in presence of IL-2 for 2 days. […] Tcf1^+CD8^+, CD44^+CD62L^+CD8^+ and survival (stained with Annexin V-APC and PI) T cells were detected via flow cytometry.

[2] = tested on: OT-I CD8+ T cells; test: In vitro central memory (Tcm) differentiation of OT-I CD8+ T cells activated with SIINFEKL peptide and IL-2 with metabolites; type: cell-based, mice; conditions: day 8; metabolite-supplemented medium (arginine 3 mM, 3-methylhistidine 3 mM, DHB 100 μM, sodium ferulate 100 μM)
Method: FIG. 2: a) OT-I CD8+ T cells were cultured with different metabolites in vitro as indicated, b,c) shown is the frequency of CD44^+CD62L^+ Tcm CD8+ T cells on day 8. d) OT-I CD8+ T cells were activated with α-CD3/α-CD28 antibodies in presence of metabolites as indicated and shown is the Tcm CD8+ T cells on day 7. Data represent the mean±s.e.m. (n=5).
Splenocytes from OT-I mice were obtained aseptically. The cells were cultured in 96-well plates (1×10^5 cells per well). For Tcm differentiation study, cells were activated with SIINFEKL peptide (4×10^−9M) in the presence of various metabolites (arginine: 3 mM; 3-methylhistidine: 3 mM; N-acetylneuraminate: 100 μM; disodium sebacate: 100 μM; DHB: 100 μM; pantothenate: 100 μM; γ-aminobutyric acid: 100 μM; glycerol: 100 μM; AICAR: 100 μM, sodium ferulate: 100 μM) for 3 days. Then cells were washed three times with T-cell medium and further cultured with IL-2 (10 ng ml^−1; PeproTech) in the presence of metabolites for 5 days. The cells were then washed twice and re-activated with SIINFEKL peptide (10 μM) for 2 h. The suspension cells were collected, blocked with CD16/32 antibody and stained with the fixable viability dye eFluor 450, FITC-CD44 rat anti-human/mouse and PE-CD62L monoclonal antibody. To test if the central memory CD8+ T cells differentiation is dependent on dendritic cells, CD8 T cells isolated from the spleen in OT-I mice were incubated in the 96-well plate, which was precoated with anti-hamster IgG antibody. […] (1 μg mL^−1) and IL-2 (100 U mL^−1) were added into each well in the presence of 3-methylhistidine (3 mM), DHB (100 μM), or sodium ferulate (100 μM) for 2 days. Then cells were washed for three times to remove α-CD3/α-CD28 antibodies and further incubated with metabolites and IL-2 (10 ng ml^−1) for 5 days. Thereafter, cells were collected for central memory CD8^+ T cells analysis. For CD8^+ T cells survival study, cells were activated with antigen peptide as above, following with thoroughly washing, and incubation in presence of IL-2 for 2 days. Metabolites were added during this incubation (arginine: 3 mM, 1 mM; 3-methylhistidine: 3 mM, 1 mM, 500 μM, 100 μM; N-acetylneuraminate: 100 μM; disodium sebacate: 100 μM; DHB: 100 μM, 50 μM, 20 μM; pantothenate: 100 μM; γ-aminobutyric acid: 100 μM; glycerol: 100 μM; AICAR: 100 μM). Then cells were further incubated in absence of both IL-2 and metabolites for 36 h to induce the apoptosis/dead. For Tcf1^+CD8^+ differentiation study, cells were activated with antigen peptide as above, followed by thoroughly washing, and incubation with metabolites in presence of IL-2 for 3 days. […] Tcf1^+CD8^+, CD44^+CD62L^+CD8^+ and survival (stained with Annexin V-APC and PI) T cells were detected via flow cytometry.

[3] = tested on: tumor; conditions: reported in literature (Geiger et al.); cited from earlier work
[4] = Encapsulation of DHB-based prodrugs in lipid-based formulation; type: physicochemical; conditions: oleic acid, Tween 80, PBS emulsion
Method: The DHB-based prodrugs were synthesized by the Medicinal Chemistry Core in University of Michigan. To prepare the formulation, the prodrug #201 or #905 (4 mg) was added to the mixture of oleic acid (45 μL) and Tween 80 (25 μL) and incubated overnight to equilibrate and allow the prodrug to dissolve. Then an aqueous phase consisting of PBS buffer was added, and the formulation emulsified by ultrasonication with an ultrasonic processor.

[5] = tested on: CT26 colon carcinoma cells; test: CT26 tumor model, oral prodrug-based lipid formulation plus α-PD-1; type: in vivo, BALB/c mice
Method: FIG. 9: a) Scheme showing the preparation of formulation encapsulating DHB prodrug. b) Therapeutic treatment regimen. BALB/c mice were s.c. inoculated with 1.5×10^5 CT26 colon carcinoma cells. The prodrug #201 (0.5 mg per dose) or #905 (1 mg per dose) were orally administrated every other day, respectively. 100 μg α-PD-1 was injected i.p. on days 11, 15, and 19. Shown are the (c) average tumor growth; AH1-specific CD8+ T cells in PBMCs on days (d) 18 and (e) 24. Tumor microenvironment analysis: (f) immune cells (CD45^+ cells) infiltration, (g) CD8^+ T cells, (h) CD44^+CD62L^+ central memory CD8+ T cells, and (i) AH1-specific CD8^+ T cells in tumor tissue on day 25. Data represent the mean±s.e.m. (n=5).
The CT26 tumor model was established as above. The formulation containing prodrug #201 or #905 was orally administered starting on day 8 and performed every other day. α-PD-1 antibody (100 μg per dose) was i.p. injected on days 11, 15, and 19. The PBMCs were obtained on days 18 and 24 and stained with PE-tagged peptide-MHC tetramer (H-2L^d-restricted SPSYVYHQF). Mice were euthanized on day 25 and tumor tissues were cut into small pieces and incubated with collagenase type IV (1 mg ml-1) and DNase I (0.1 mg ml-1) under gentle shaking. After 30 min, the cell suspension was filtered through a 70-μm strainer. The cells were washed with fluorescence-activated cell sorting (FACS) buffer and blocked with CD16/32 antibody. The cells were then stained with the designated antibodies: efluor450, FITC-CD44 rat anti-human/mouse, PE-CD62L monoclonal antibody, and APC-CD8 rat anti-mouse, PE-Tcf1/Tcf7 rabbit monoclonal antibody, APC-efluor780-Cd45 Rat anti Mouse (Clone: 30 F11), PE-AH1-specific tetramer. Cells were analyzed by flow cytometry.

N=C(N)NCCC[C@H](N)C(=O)O [L-arginine]
survival of activated CD8+ T cells [1]: significantly increased the survival
differentiation of CD44+CD62L+ central memory CD8+ T cells [2]: significantly increased the differentiation
antitumor effect in vivo [3]: improve the antitumor effect in vivo

CCOC(=O)c1ccc(OC(=O)C(C)(C)C)c(OC(=O)C(C)(C)C)c1 [Prodrug #201, 4-(ethoxycarbonyl)-1,2-phenylene bis(2,2-dimethylpropanoate)]
encapsulation in lipid-based dose forms [4]: can be successfully encapsulated
infiltration of immune cells (CD45+ cells), AH1-specific CD8+ T cells and CD44+CD62L+ central memory CD8+ T cells in tumor tissue ([5]; oral formulation plus α-PD-1, day 25): promoted the infiltration
frequency of AH1-specific CD8+ T cells among PBMCs ([5]; oral formulation plus α-PD-1, days 18 and 24): increased the frequency
tumor growth ([5]; orally administered lipid formulation, 0.5 mg per dose every other day, plus α-PD-1): substantially slowed down the tumor growth
